Test results taken from ChEMBL document CHEMBL4630901 (2021).

Experiments:
[1] = biological target: 5-hydroxytryptamine receptor 1E (Homo sapiens) (UniProt P28566); conditions: Compound concentration 10.0 uM
[2] = biological target: Alpha-2A adrenergic receptor (Homo sapiens, UniProt P08913); experiment: GPCRScan assay: inhibition of Alpha2A; design: radioligand conc. used [nm] 1.0 – 3.0, parental cells stable MDCK
[3] = biological target: D(3) dopamine receptor (Homo sapiens) (UniProt P35462); conditions: Compound concentration 10.0 uM
[4] = biological target: Prostaglandin E2 receptor EP2 subtype (Homo sapiens) (UniProt P43116); experiment: Prostanoid EP2 Eurofins-Panlabs radioligand binding assay; design: ligand concentration 4 nM
[5] = biological target: Prostaglandin F2-alpha receptor (Homo sapiens, UniProt P43088); experiment: Prostanoid FP Eurofins-Panlabs radioligand binding assay; design: ligand concentration 1 nM
[6] = biological target: Adenosine Transporter (Cavia porcellus) (UniProt H0V4R7+H0UUG1+H0V3Z5); experiment: Inhibition of Transporter, Adenosine at compound concentration of 10.0 uM in the Eurofins-Panlabs radioligand binding assay (Eurofins_assay_202000); assay type: protein assay; design: ligand concentration 0.5 nM, non-specific ligand with concentration 5 uM Nitrobenzylthioinosine, incubation time 30 min, incubation temperature 25 C; conditions: Compound concentration 10.0 uM
[7] = biological target: 5-hydroxytryptamine receptor 2A (Homo sapiens) (UniProt P28223); conditions: Compound concentration 10.0 uM
[8] = biological target: Kappa-type opioid receptor (Homo sapiens) (UniProt P41145); conditions: Compound concentration 10.0 uM
[9] = biological target: Adenosine receptor A2a (Homo sapiens) (UniProt P29274); conditions: Compound concentration 10.0 uM
[10] = biological target: Adenosine receptor A1 (Homo sapiens) (UniProt P30542); conditions: Compound concentration 10.0 uM
[11] = biological target: T1, Alpha-2A adrenergic receptor (Homo sapiens) (UniProt P08913); conditions: Compound concentration 10.0 uM
T1 sequence (whole entry): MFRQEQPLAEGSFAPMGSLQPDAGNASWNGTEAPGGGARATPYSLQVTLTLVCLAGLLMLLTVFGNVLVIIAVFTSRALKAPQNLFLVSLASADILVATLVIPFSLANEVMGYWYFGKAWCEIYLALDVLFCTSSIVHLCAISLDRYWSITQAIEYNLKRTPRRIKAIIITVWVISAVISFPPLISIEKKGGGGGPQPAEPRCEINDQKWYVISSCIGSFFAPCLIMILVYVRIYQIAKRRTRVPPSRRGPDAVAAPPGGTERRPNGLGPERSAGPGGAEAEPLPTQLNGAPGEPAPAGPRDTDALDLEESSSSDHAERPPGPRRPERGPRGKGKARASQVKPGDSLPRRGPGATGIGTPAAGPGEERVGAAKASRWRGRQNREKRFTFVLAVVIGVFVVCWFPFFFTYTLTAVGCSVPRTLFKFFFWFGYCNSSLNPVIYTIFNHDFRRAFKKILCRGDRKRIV

[12] = biological target: T2, 5-hydroxytryptamine receptor 2C (Homo sapiens) (UniProt P28335); conditions: Compound concentration 10.0 uM
T2 sequence (whole entry): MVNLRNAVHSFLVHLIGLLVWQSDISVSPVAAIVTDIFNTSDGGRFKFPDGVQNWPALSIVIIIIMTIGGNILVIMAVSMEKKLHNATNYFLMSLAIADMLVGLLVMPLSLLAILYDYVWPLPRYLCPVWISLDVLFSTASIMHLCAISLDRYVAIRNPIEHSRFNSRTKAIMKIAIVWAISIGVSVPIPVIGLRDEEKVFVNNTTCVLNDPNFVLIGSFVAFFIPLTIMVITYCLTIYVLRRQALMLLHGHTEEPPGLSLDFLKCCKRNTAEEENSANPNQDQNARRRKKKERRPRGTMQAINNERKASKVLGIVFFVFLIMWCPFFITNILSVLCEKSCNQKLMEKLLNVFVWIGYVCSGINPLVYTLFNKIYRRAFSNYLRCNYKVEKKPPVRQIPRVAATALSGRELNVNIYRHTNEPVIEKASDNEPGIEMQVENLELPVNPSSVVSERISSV

[13] = biological target: Glutamate receptor ionotropic, kainate (Rattus norvegicus) (UniProt P22756+Q01812+P42260+P42264+Q63273); experiment: Inhibition of Glutamate, Kainate at 10 µM in the Eurofins-Panlabs radioligand binding assay (Eurofins_assay_232700); conditions: Compound concentration 10.0 uM
Homo sapiens = species on record: Homo sapiens; experiment: Inhibition of Nicotinic Acetylcholine at compound concentration of 10.0 uM in the Eurofins-Panlabs radioligand binding assay (Eurofins_assay_258590); assay type: protein-complex assay; conditions: Compound concentration 10.0 uM
[14] = biological target: T3, Prostaglandin E2 receptor EP1 subtype (Homo sapiens) (UniProt P34995); experiment: Prostanoid EP1 Eurofins-Panlabs radioligand binding assay; design: ligand concentration 1 nM
T3 sequence (whole entry): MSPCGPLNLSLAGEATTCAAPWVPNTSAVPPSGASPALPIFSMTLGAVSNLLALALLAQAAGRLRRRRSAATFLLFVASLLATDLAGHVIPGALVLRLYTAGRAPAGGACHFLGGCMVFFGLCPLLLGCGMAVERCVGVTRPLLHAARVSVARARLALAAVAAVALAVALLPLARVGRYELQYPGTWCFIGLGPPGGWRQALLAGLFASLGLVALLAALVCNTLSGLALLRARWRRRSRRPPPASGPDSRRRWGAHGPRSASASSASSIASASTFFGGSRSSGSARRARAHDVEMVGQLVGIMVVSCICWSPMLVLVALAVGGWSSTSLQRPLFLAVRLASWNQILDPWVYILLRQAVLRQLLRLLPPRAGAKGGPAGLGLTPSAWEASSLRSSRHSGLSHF

[15] = biological target: B1 bradykinin receptor (Homo sapiens) (UniProt P46663); experiment: Inhibition of Bradykinin B1 at 10 µM in the Eurofins-Panlabs radioligand binding assay (Eurofins_assay_212510); conditions: Compound concentration 10.0 uM
[16] = biological target: T4, Prostaglandin E2 receptor EP3 subtype (Homo sapiens) (UniProt P43115); experiment: Prostanoid EP3 Eurofins-Panlabs radioligand binding assay; design: ligand concentration 0.5 nM
T4 sequence (whole entry): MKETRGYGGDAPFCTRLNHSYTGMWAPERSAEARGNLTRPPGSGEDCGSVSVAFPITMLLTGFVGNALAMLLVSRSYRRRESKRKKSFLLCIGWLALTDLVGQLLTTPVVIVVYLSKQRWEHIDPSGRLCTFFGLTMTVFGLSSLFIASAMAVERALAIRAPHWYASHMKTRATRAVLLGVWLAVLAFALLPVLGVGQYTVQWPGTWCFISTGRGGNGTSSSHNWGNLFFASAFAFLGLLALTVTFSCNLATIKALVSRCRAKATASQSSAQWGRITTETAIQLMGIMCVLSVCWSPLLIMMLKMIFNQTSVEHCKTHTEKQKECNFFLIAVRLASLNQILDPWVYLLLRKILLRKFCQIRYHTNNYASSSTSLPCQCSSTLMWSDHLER

[17] = Compound concentration 0.001 uM

Prostaglandin F2-alpha receptor, sequence (P43088 whole entry): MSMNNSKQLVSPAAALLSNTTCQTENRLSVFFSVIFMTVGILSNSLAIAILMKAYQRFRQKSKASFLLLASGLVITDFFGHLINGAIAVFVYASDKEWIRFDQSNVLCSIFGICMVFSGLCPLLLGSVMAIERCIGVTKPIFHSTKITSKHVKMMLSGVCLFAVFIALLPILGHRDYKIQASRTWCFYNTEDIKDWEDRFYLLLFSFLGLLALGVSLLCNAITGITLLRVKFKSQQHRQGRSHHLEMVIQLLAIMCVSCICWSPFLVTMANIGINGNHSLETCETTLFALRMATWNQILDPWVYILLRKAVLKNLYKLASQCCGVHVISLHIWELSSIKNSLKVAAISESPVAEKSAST
Prostaglandin E2 receptor EP2 subtype (Homo sapiens), sequence (P43116 whole entry): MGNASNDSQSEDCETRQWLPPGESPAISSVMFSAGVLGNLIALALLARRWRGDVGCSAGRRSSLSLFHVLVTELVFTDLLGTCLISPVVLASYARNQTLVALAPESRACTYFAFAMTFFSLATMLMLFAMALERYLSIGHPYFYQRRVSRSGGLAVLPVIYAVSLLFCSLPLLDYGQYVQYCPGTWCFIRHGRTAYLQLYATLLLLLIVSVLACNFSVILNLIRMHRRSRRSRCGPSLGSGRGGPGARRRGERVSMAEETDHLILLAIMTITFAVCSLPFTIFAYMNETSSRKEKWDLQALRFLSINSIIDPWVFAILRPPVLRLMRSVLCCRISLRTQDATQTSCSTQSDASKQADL
B1 bradykinin receptor (Homo sapiens), sequence (P46663 whole entry): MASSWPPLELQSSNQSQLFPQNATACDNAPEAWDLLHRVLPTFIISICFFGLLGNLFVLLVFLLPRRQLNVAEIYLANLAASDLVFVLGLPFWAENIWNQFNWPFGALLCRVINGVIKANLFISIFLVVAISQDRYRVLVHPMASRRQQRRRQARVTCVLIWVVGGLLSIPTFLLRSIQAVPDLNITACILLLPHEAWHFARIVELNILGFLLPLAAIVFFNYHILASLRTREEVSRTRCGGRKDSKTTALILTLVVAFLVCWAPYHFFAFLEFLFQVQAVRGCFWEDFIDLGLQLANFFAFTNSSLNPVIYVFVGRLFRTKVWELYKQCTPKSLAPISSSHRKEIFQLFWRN
Kappa-type opioid receptor (Homo sapiens), sequence (P41145 whole entry): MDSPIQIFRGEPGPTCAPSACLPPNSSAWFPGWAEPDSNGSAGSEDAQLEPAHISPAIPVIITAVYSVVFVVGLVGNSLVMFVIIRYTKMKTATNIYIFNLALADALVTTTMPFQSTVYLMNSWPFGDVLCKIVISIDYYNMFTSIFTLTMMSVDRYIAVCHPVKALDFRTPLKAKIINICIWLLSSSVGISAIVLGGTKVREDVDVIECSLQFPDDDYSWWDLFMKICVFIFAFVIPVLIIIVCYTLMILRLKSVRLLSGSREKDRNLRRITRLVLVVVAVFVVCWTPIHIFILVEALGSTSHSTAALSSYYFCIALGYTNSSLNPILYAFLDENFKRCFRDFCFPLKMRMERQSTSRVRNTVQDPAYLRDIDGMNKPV
5-hydroxytryptamine receptor 1E (Homo sapiens), sequence (P28566 whole entry): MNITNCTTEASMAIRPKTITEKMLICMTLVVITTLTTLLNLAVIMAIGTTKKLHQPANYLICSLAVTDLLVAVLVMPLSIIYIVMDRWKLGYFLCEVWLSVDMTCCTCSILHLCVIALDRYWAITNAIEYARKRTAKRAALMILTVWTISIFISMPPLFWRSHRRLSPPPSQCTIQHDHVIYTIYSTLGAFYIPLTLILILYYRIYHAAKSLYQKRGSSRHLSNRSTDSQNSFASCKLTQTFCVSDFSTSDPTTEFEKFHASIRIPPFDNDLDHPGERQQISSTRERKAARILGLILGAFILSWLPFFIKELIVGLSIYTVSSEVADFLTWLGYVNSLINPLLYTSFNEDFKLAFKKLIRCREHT
Adenosine receptor A2a (Homo sapiens), sequence (P29274 whole entry): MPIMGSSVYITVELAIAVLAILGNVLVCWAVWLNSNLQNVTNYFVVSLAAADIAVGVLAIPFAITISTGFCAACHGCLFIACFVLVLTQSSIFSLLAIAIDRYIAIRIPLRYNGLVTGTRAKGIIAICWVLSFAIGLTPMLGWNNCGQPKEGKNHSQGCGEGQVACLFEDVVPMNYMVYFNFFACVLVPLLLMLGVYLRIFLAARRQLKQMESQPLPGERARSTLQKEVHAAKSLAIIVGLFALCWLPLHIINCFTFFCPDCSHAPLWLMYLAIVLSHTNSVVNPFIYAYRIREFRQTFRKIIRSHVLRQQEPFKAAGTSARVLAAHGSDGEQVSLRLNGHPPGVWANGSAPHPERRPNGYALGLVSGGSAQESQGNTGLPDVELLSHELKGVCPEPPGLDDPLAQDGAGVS
5-hydroxytryptamine receptor 2A (Homo sapiens), sequence (P28223 whole entry): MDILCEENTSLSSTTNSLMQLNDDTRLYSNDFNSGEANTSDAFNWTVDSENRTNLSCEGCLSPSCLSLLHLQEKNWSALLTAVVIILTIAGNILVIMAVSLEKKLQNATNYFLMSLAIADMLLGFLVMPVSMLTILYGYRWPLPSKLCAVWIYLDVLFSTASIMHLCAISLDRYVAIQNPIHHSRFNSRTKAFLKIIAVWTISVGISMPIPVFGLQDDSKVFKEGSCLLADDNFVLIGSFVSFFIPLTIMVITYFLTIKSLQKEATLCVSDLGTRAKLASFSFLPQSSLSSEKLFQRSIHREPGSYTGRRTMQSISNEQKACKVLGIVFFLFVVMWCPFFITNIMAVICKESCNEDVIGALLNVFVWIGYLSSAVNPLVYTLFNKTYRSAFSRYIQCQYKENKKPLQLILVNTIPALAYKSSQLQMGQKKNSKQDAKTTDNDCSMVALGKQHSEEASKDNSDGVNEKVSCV
Adenosine receptor A1 (Homo sapiens), sequence (P30542 whole entry): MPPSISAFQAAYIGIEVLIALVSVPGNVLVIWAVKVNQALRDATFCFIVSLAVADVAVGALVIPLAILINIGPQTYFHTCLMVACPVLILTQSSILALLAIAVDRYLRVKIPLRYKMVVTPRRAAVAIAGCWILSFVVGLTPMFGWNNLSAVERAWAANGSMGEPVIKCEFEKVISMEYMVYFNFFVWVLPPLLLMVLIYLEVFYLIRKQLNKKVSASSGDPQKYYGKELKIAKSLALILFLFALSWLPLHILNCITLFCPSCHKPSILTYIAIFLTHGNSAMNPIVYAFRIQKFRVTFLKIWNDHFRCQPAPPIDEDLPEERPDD
D(3) dopamine receptor (Homo sapiens), sequence (P35462 whole entry): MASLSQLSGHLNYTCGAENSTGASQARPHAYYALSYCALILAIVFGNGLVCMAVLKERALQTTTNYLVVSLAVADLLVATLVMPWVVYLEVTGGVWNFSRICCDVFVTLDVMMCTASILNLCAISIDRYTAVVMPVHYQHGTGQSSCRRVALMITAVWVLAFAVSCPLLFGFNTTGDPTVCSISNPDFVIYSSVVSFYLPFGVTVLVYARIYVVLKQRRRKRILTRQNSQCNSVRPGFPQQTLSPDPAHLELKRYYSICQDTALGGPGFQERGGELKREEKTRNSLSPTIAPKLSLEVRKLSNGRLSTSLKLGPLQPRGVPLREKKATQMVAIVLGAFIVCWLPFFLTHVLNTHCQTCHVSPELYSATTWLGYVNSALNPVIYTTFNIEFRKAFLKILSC

Cc1c(N2CCNCC2)nc2ccc(Br)cc2c1C(=O)NC[C@H](CCC(=O)O)c1ccccc1Cl [BAY-403]
inhibition [1]: 18.3% | Ki [2]: 8.47 µM | inhibition [3]: 3.81%

Cc1c(N2CCCC2)nc2ccc(Br)cc2c1C(=O)NC[C@H](CCC(=O)O)c1ccccc1Cl [BAY-6672]
inhibition [4, 17]: 4% | inhibition ([4]; Compound concentration 0.01 uM): -2% | inhibition ([4]; Compound concentration 0.1 uM): 3% | inhibition ([4]; Compound concentration 1.0 uM): 15% | inhibition ([4]; Compound concentration 10.0 uM): 4% | inhibition [5, 17]: 7% | inhibition ([5]; Compound concentration 0.01 uM): 35% | inhibition ([5]; Compound concentration 0.1 uM): 79% | inhibition ([5]; Compound concentration 1.0 uM): 94% | inhibition ([5]; Compound concentration 10.0 uM): 97% | inhibition [6]: 10% | inhibition [7]: -7% | inhibition [8]: 15% | inhibition [9]: 2% | inhibition [10]: 5% | inhibition [11]: 13% | inhibition [12]: 16% | inhibition [13]: 11% | inhibition (Homo sapiens): 3% | inhibition [14, 17]: 11% | inhibition ([14]; Compound concentration 0.01 uM): -2% | inhibition ([14]; Compound concentration 0.1 uM): 1% | inhibition ([14]; Compound concentration 1.0 uM): -5% | inhibition ([14]; Compound concentration 10.0 uM): 22% | inhibition [15]: 7% | inhibition [16, 17]: 7% | inhibition ([16]; Compound concentration 0.01 uM): 2% | inhibition ([16]; Compound concentration 0.1 uM): 17% | inhibition ([16]; Compound concentration 1.0 uM): 10% | inhibition ([16]; Compound concentration 10.0 uM): 15%
